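All cell lines were grown in 96-well plates and treated with compound for 48 hours. TGI marks complete inhibition of growth.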
How the values were obtained:
Experiment in all cases: growth of human tumour cells (NCI), 48 h
[1] = tested on: EKVX NSCLC
[2] = tested on: SK-MEL-28 melanoma
[3] = tested on: NCI/ADR-RES ovarian
[4] = tested on: MDA-MB-435
[5] = tested on: UACC-257 melanoma
[6] = tested on: OVCAR-3 ovarian
[7] = tested on: SF-268 CNS
[8] = tested on: HOP-92 NSCLC
[9] = tested on: U251 CNS
[10] = tested on: BT-549 breast
[11] = tested on: TK-10 renal
[12] = tested on: CAKI-1 renal
[13] = tested on: HOP-62 NSCLC
[14] = tested on: SR leukemia
[15] = tested on: COLO 205 colon
[16] = tested on: OVCAR-4 ovarian
[17] = tested on: SK-MEL-2 melanoma
[18] = tested on: NCI-H460 lung
[19] = tested on: K-562 leukemia
[20] = tested on: UACC-62 melanoma
[21] = tested on: NCI-H522 lung
[22] = tested on: HCC-2998 colon
[23] = tested on: SF-539 CNS
[24] = tested on: MALME-3M melanoma
[25] = tested on: SK-OV-3 ovarian
[26] = tested on: HCT-116 colon
[27] = tested on: KM12 colon
[28] = tested on: A549 NSCLC
[29] = tested on: SNB-19 CNS
[30] = tested on: DU-145 prostate
[31] = tested on: MDA-MB-231 breast
[32] = tested on: SK-MEL-5 melanoma
[33] = tested on: ACHN renal
[34] = tested on: RXF 393 renal
[35] = tested on: HS 578T breast
[36] = tested on: OVCAR-8 ovarian
[37] = tested on: CCRF-CEM leukemia
[38] = tested on: HT29 colon
[39] = tested on: A498 renal
[40] = tested on: RPMI-8226 leukemia
[41] = tested on: M14 melanoma
[42] = tested on: MCF7 breast
[43] = tested on: PC-3 prostate
[44] = tested on: OVCAR-5 ovarian
[45] = tested on: UO-31 renal
[46] = tested on: HCT-15 colon
[47] = tested on: HL-60(TB) leukemia
[48] = tested on: NCI-H226 lung
[49] = tested on: SF-295 CNS
[50] = tested on: T-47D breast
[51] = tested on: 786-0 renal
[52] = tested on: NCI-H23 lung
[53] = tested on: MDA-N
[54] = tested on: SN12C renal
[55] = tested on: MOLT-4 leukemia

## N#CC(N=Nc1ccc(Cl)cc1)c1nc2ccccc2o1 (stereo not given)
[1]
  TGI: > 100 µM
[2]
  TGI: > 100 µM
[3]
  TGI: > 100 µM
[4]
  TGI: > 100 µM
[5]
  TGI: > 100 µM
[6]
  TGI: > 100 µM
[7]
  TGI: > 100 µM
[8]
  TGI: 70.4 µM
[9]
  TGI: > 100 µM
[10]
  TGI: 95.6 µM
[11]
  TGI: > 100 µM
[12]
  TGI: > 100 µM
[13]
  TGI: > 100 µM
[14]
  TGI: > 100 µM
[15]
  TGI: > 100 µM
[16]
  TGI: > 100 µM
[17]
  TGI: 88.7 µM
[18]
  TGI: > 100 µM
[19]
  TGI: 50.2 µM
[20]
  TGI: > 100 µM
[21]
  TGI: 81.1 µM
[22]
  TGI: > 100 µM
[23]
  TGI: 56.2 µM
[24]
  TGI: > 100 µM
[25]
  TGI: > 100 µM
[26]
  TGI: > 100 µM
[27]
  TGI: > 100 µM
[28]
  TGI: > 100 µM
[29]
  TGI: > 100 µM
[30]
  TGI: > 100 µM
[31]
  TGI: > 100 µM
[32]
  TGI: > 100 µM
[33]
  TGI: > 100 µM
[34]
  TGI: > 100 µM
[35]
  TGI: > 100 µM
[36]
  TGI: > 100 µM
[37]
  TGI: 45.6 µM
[38]
  TGI: > 100 µM
[39]
  TGI: > 100 µM
[40]
  TGI: > 100 µM
[41]
  TGI: > 100 µM
[42]
  TGI: > 100 µM
[43]
  TGI: > 100 µM
[44]
  TGI: > 100 µM
[45]
  TGI: > 100 µM
[46]
  TGI: > 100 µM
[47]
  TGI: > 100 µM
[48]
  TGI: > 100 µM
[49]
  TGI: 67.9 µM
[50]
  TGI: > 100 µM
[51]
  TGI: > 100 µM
[52]
  TGI: 98.2 µM
[53]
  TGI: > 100 µM
[54]
  TGI: > 100 µM
[55]
  TGI: > 100 µM

Source: PubChem BioAssay (NCI)
